Reference: US20040224969A1, “Salts of substituted 1,2,3,4-tetrahydroquinoline-2-carboxylic acid compounds” (Gruenenthal GmbH, priority 2001, published 2004)

Tests used:
[1] = tested on: formalin-induced nociception; test: Formalin test on the rat (second phase); type: in vivo; conditions: late phase
Procedure: The experiments for determining the antinociceptive action of the compounds of formula I according to the invention were performed in the formalin test on male rats (Sprague-Dawley, 150-170 g).
In the formalin test a distinction is made between the first (early) phase (0-15 min after the formalin injection) and the second (late) phase (15-60 min after the formalin injection) (D. Dubuisson, S. G. Dennis, Pain, 4, 161-174 (1977)). The early phase represents a model for acute pain as a direct reaction to the formalin injection, while the late phase is regarded as a model for persistent (chronic) pain (T. J. Coderre, J. Katz, A. L. Vaccarino, R. Melzack, Pain, vol. 52, p. 259, 1993). […]
A single subcutaneous formalin injection (50 μl, 5%) in the dorsal side of the right back paw of free-moving experimental animals induced a nociceptive reaction which is represented by the following behavioral parameters: lifting and holding of the affected paw (score 1), shaking or twitching (score 2), licking and biting (score 3). The differing modes of behavior triggered by the formalin injection were recorded continuously by observing the animals in the late phase of the formalin test, and differently weighted in an evaluation. Normal behavior, where the animal distributes its weight evenly over all four paws, was recorded as a score of 0. […]

[2] = target: T1, glycine binding site of the NMDA receptor channel (Rattus norvegicus, UniProt P35439); test: Receptor binding (glycine binding site of the NMDA receptor channel), (3H)-MDL 105.519 displacement on brain membrane homogenates; conditions: for Displacement (%, 10 μmol/l): displacement of (3H)-MDL 105.519 at 10 μmol/l of substance; for Ki: rat cortex/hippocampus membranes, 1 nmol/l (3H)-MDL 105.519, mean of 3 independent experiments
T1 construct: from tissue; host or cells: rat brain cortex and hippocampus membrane homogenate (male Wistar rats)
Procedure: Receptor binding (glycine binding site of the NMDA receptor channel)
The tests for determining the affinity of the compounds of formula I according to the invention for the glycine binding site of the NMDA receptor channel were carried out on brain membrane homogenates (homogenate of the cortex and hippocampus areas of the brain of male rats, Wistar strain) [B. M. Baron, B. W. Siegel, B. L. Harrison, R. S. Gross, C. Hawes and P. Towers, Journal Of Pharmacology and Experimental Therapeutics, vol. 279, p. 62, 1996].
For this purpose, the cortex and hippocampus were freed without cutting from freshly removed rat brains, homogenized in 5 mmol/l TRIS acetate buffer, 0.32 mol/l sucrose, pH 7.4 (10 ml/g of fresh weight), using a Potter homogenizer (Braun/Melsungen, 10 piston strokes at 500 rpm), with ice cooling, and then centrifuged for 10 minutes at 1000 g and 4° C. The first supernatant was collected and the sediment was homogenized again with 5 mmol/l TRIS acetate buffer, 0.32 mol/l sucrose, pH 7.4 (5 ml/g of original fresh weight), using the Potter homogenizer (10 piston strokes at 500 rpm), with ice cooling, and centrifuged for 10 minutes at 1000 g and 4° C. The resulting supernatant was combined with the supernatant from the first centrifugation and centrifuged at 17,000 g for 20 minutes at 4° C. The supernatant after this centrifugation was discarded and the membrane sediment was taken up with 5 mmol/l TRIS acetate buffer, pH 8.0 (20 ml/g of original fresh weight), and homogenized with 10 piston strokes at 500 rpm.
The membrane homogenate was then incubated for 1 hour at 4° C. and centrifuged for 30 minutes at 50,000 g and 4° C. The supernatant was discarded and the centrifuge tube containing the membrane sediment was sealed with Parafilm and frozen for 24 hours at −20° C. On the following day the membrane sediment was thawed, taken up with ice-cold 5 mmol/l TRIS acetate buffer, 0.1% saponin (w/v), pH 7.0 (10 ml/g of original fresh weight), homogenized with 10 piston strokes at 500 rpm and then centrifuged for 20 minutes at 50,000 g and 4° C. The resulting supernatant was discarded and the sediment was taken up in a small volume with 5 mmol/l TRIS acetate buffer, pH 7.0 (approximately 2 ml/g of original fresh weight), and homogenized again with 10 piston strokes at 500 rpm. After determination of the protein content, the membrane homogenate was adjusted to a protein concentration of 10 mg protein/ml with 5 mmol/l TRIS acetate buffer, pH 7.0, and frozen in aliquots until tested.
For the receptor binding test, aliquots were thawed, diluted to 1:10 with 5 mmol/l TRIS acetate buffer, pH 7.0, homogenized with 10 piston strokes at 500 rpm using the Potter homogenizer (10 piston strokes at 500 rpm), with ice cooling, and centrifuged for 60 minutes at 55,000 g and 4° C. […]
In the binding test, 50 mmol/l TRIS acetate buffer, pH 7.0, was used as the buffer and 1 nmol/l (^3H)-MDL 105.519 (B. M. Baron et al., 1996) was used as the radioactive ligand. The proportion of non-specific binding was determined in the presence of 1 mmol/l glycine.
In other preparations the compounds according to the invention were added in concentration series and the displacement of the radioactive ligand from its specific binding to the glycine binding site of the NMDA receptor channel was measured. […]

AMPA receptor channels = test: AMPA-induced ionic fluxes on RNA-injected Xenopus oocytes (two-electrode voltage clamp); type: cell-based, rat; conditions: 10 μmol/l compound, AMPA 100 μmol/l, n = 2

| Structure (SMILES) | % inhibition of the formalin-induced nociception ([1]; i.v., 68.1 mg/kg) [%] | Displacement (%, 10 μmol/l) [2] [%] | Ki [2] [nM] | AMPA-induced ionic fluxes Inhibition at 10 μmol/l of the compounds according to the invention (AMPA receptor channels) | % inhibition of the formalin-induced nociception ([1]; i.p., 21.5 mg/kg) [%] |
| --- | --- | --- | --- | --- | --- |
| O=C([O-])C1Nc2cc(Cl)cc(Cl)c2C2C=CCC12.[Na+] (centres unmarked) [Example 55, 7,9-Dichloro-3a,4,5,9b-tetrahydro-3H-cyclopenta [c]quinoline-4-carboxylate; sodium salt] | 56 | 90 | 350 | – | – |
| O=C(O)C1Nc2cc(Cl)cc(Cl)c2C2C=CCC12 (centres unmarked) [Example 1, 7,9-Dichloro-3a,4,5,9b-tetrahydro-3H-cyclopenta [c]quinoline-4-carboxylic acid] | – | – | – | 5.4% (n = 2) | 64.5 |
| O=C([O-])C1Nc2cc(Cl)cc(Cl)c2C2CCCC12.[Na+] (centres unmarked) [Example 54, 7,9-Dichloro-2,3,3a,4,5,9b-hexahydro-1H-cyclopenta [c]quinoline-4-carboxylate; sodium salt] | – | 97 | – | – | – |
| O=C(O)C1Nc2ccc(Cl)cc2C2C=CCC12 (centres unmarked) [Example 2, 8-Chloro-3a,4,5,9b-tetrahydro-3H-cyclopenta [c]quinoline-4-carboxylic acid] | – | 100 | 300 | – | – |
